From patent US7759346B2, “[[2-(amino-3,4-dioxo-1-cyclobuten-1-yl)amino]alkyl]-acid derivatives for the treatment of pain” (priority 2001, dated 2010)
Like-named read-outs stand apart in the source and are kept apart here.

Columns and labels:
Spraque-Dawley rats [1] = test: Observable signs of sedation and ataxia
Spraque-Dawley rats [2] = test: Prostaglandin E2-induced thermal hypersensitivity, warm-water tail withdrawal, single compound studies; type: in vivo, rat; settings: given 30 min before PGE2
Protocol: Ketamine and dizocilpine are high affinity use-dependent NMDA receptor channel blockers, while memantine is a moderate affinity use-dependent NMDA receptor channel blocker. CGS-19755 is a competitive NMDA antagonist and ifenprodil is a […] polyamine antagonist. Test Method 1: Prostaglandin E2-Induced Thermal Hypersensitivity.
(§1) The terminal 10 cm of the tail was placed into a thermos bottle containing water warmed to 38, 42, 46, 50, 54, or 58° C. The latency in seconds for the animal to remove the tail from the water was used as a measure of nociception.
(§2) Following the assessment of baseline thermal sensitivity, thermal hypersensitivity was produced by a 50 μL injection of 0.1 mg prostaglandin E2 (PGE2) into the terminal 1 cm of the tail. Temperature-effect curves were generated before (baseline) and after (15, 30, 60, 90 and 120 min) the PGE2 injection.
Single compound studies. The ability of drugs to reverse PGE2-induced thermal hypersensitivity was assessed using a single dose time-course procedure. Under this procedure, a single dose of the compound to be tested was administered intraperitoneally (IP), orally (PO) or intranasally (IN) 30 min before the injection of PGE2. […] sensitivity was assessed 30 min after PGE2 injection.
(§3) Test Method 1 Data Analysis—The temperature that produced a half-maximal increase in the tail-withdrawal latency (i.e., T10) was calculated from each temperature-effect curve. The T10 was determined by interpolation from a line drawn between the point above and the point below 10 sec on the temperature-effect curve. For these studies, thermal hypersensitivity was defined as a leftward shift in the temperature-effect curve and a decrease in the T10 value. Reversal of thermal hypersensitivity was defined as a return to baseline of the temperature-effect curve and the T10 value and was calculated according to the following equation:
[formula] in which T10^drug+PGE2 is the T10 after a drug in combination with PGE2, T10^PGE2 is the T10 after PGE2 alone, and T10^baseline is the T10 under control conditions. A % MPE value of 100 indicates a complete return to the baseline thermal sensitivity observed without the PGE2 injection. […] Test Method 2: Chronic Constriction Injury

[3] = tested on: rats trained to discriminate between saline and PCP; test: PCP-like discriminative stimulus effects (substitution for PCP); type: in vivo
Spraque-Dawley rats [4] = test: Scheduled-controlled responding (operant responding, food presentation)
Text: (§4) [formula] in which 50%^drug+CCl is the 50% value after compound in animals approximately one week after CCl surgery, 50%^CCl is the 50% value approximately one week after CCl surgery alone, and 50%^baseline is the 50% value before CCl surgery. Maximal effect of 100% reversal represents a return to the mean pre-operative threshold value for subjects in that experimental condition. Test Method 3: Scheduled-Controlled Responding.
Rats were trained under a multiple-cycle procedure during experimental sessions conducted five days each week. Each training cycle consisted of a 1-min pretreatment period followed by a 10-min response period. During the pretreatment period, stimulus lights were not illuminated, and responding had no scheduled consequences. During the response period, the left or right stimulus lights were illuminated (counterbalanced among subjects), the response lever was extended and subjects could respond under a fixed ratio 30 schedule of food presentation. Training sessions consisted of 3 consecutive cycles. Testing sessions were identical to training sessions except that a single dose of drug was administered at the start of the first cycle.
Data analysis. Operant response rates from individual animals were averaged for the three cycles during test sessions and were converted to percent of control response rates using the average rate from the previous training day as the control value (i.e., average of three cycles). Data are presented as the mean (±1 SEM) response rate as a percent of control.

Spraque-Dawley rats [5] = test: Warm-water tail withdrawal combination studies with morphine; type: in vivo, rat; settings: 10.0 mg/kg IP, 30 min before testing
Protocol: as §1
Combination compound studies. […] Compounds were administered IP at the same time 30 min before testing.
as §3, with “equation: […]” for “equation:”

[6] = tested on: cingulate and retrosplenial cortices of mice and rats; test: Induction of vacuoles (vacuolization) versus behaviorally effective doses; settings: in vivo
Spraque-Dawley rats [7] = type: in vivo, rat
Protocol: as §1, §2
Compounds were administered IP at the same time as PGE2, which was administered 30 min before testing.
as §3, with “equation: […]” for “equation:”

Spraque-Dawley rats [8] = test: Chronic Constriction Injury-induced tactile hypersensitivity (von Frey); type: in vivo, rat; settings: IP, one week after CCl surgery
Text: Rats were anesthetized with 3.5% halothane in O2 at 1 L/min and maintained with 1.5% halothane in O2 during surgery. A modified chronic sciatic nerve constriction injury (Mosconi & Kruger, 1996; Bennett & Xie, 1988) was produced by a cutaneous incision and a blunt dissection through the biceps femoris to expose the sciatic nerve. A PE 90 Polyethylene tubing (Intramedic, Clay Adams; Becton Dickinson Co.) cuff (2 mm length) was placed around the sciatic nerve at the level of the mid-thigh. The wound was closed in layers using 4-0 silk suture and wound clips. Testing was conducted 6-10 days after surgery.
Animals were placed in elevated wire cages and allowed 45-60 minutes to acclimate to the testing room. Baseline tactile sensitivity was assessed using a series of calibrated von Frey monofilaments (Stoelting; Wood Dale, Ill.) 0-3 days before surgery. Von Frey monofilaments were applied to the mid-plantar hind paw in sequential ascending or descending order, as necessary, to hover as closely as possible to the threshold of responses. The threshold was indicated by the lowest force that evoked a brisk withdrawal response to the stimuli. Thus, a withdrawal response led to the presentation of the next lighter stimulus and the lack of a withdrawal response led to the presentation of the next stronger stimulus. Rats with baseline thresholds <10 g force were excluded from the study. […] Under cumulative dosing conditions, compounds were administered IP every 30 minutes with the cumulative dose increasing in ½ log unit increments. Tactile hypersensitivity was assessed 20-30 minutes following each drug administration.
Test Method 2 Data Analysis—The 50% threshold values (in gm force) estimated by the Dixon non-parametric test (Chaplan et al, 1994) was calculated and fifteen-grams of force was used as the maximal force. Dose-effect curves were generated for each experimental condition for each rat. Individual tactile hypersensitivity threshold values were averaged to provide a mean (±1 SEM). Reversal of tactile hypersensitivity was defined as a return to baseline tactile sensitivity and was calculated according to the following equation:
as §4

[9] = PCP-like effects relative to doses effective in an ischemia model; settings: in vivo

O=c1c2c(c1=O)N(CCP(=O)(O)O)CCCN2 [Compound A, [2-(8,9-Dioxo-2,6-diazabicyclo[5.2.0]non-1(7)-en-2-yl)ethyl]phosphonic acid]
ataxia or sedation (Spraque-Dawley rats [1]; at doses needed to relieve pain in preclinical models): did not produce ataxia or sedation
sedation or ataxia (Spraque-Dawley rats [1]; doses effective in PGE2 test (as high as 178 mg/kg)): not associated with sedation or ataxia
sedation or ataxia (Spraque-Dawley rats [1]; doses used in the CCl-induced tactile hypersensitivity study, IP): not associated with sedation or ataxia
% MPE (reversal of PGE2-induced thermal hypersensitivity) (Spraque-Dawley rats [2]; IP, 1 mg/kg): −7%
% MPE (reversal of PGE2-induced thermal hypersensitivity) (Spraque-Dawley rats [2]; IP, 3 mg/kg): 66%
% MPE (reversal of PGE2-induced thermal hypersensitivity) (Spraque-Dawley rats [2]; IP, 10 mg/kg, 10 mg/kg): 79%
% MPE (reversal of PGE2-induced thermal hypersensitivity) (Spraque-Dawley rats [2]; PO, 10 mg/kg): 5%
% MPE (reversal of PGE2-induced thermal hypersensitivity) (Spraque-Dawley rats [2]; PO, 30 mg/kg): 23%
% MPE (reversal of PGE2-induced thermal hypersensitivity) (Spraque-Dawley rats [2]; PO, 100 mg/kg, 100 mg/kg): 87%
substitution for PCP [3]: did not substitute for PCP
Operant responding: response rate as a percent of control (Spraque-Dawley rats [4]; IP, 3 mg/kg): 111%
Operant responding: response rate as a percent of control (Spraque-Dawley rats [4]; IP, 10 mg/kg): 86%
Operant responding: response rate as a percent of control (Spraque-Dawley rats [4]; PO, 10 mg/kg): 112%
Operant responding: response rate as a percent of control (Spraque-Dawley rats [4]; PO, 30 mg/kg): 97%
Operant responding: response rate as a percent of control (Spraque-Dawley rats [4]; PO, 100 mg/kg): 100%
rates of responding (in words) (Spraque-Dawley rats [4]; schedule of food presentation, Compound A IP or PO at doses that reversed hypersensitivity): did not significantly modify rates of responding
Change from Baseline (T10) (Spraque-Dawley rats [5]): −0.3
effectiveness/vacuolization ratio [6]: ≤ 16
Change from Baseline (T10) (Spraque-Dawley rats [7]; 10.0 mg/kg IP with PGE2, PGE2 + vehicle −5.6): −1.5
T10 (temperature producing half-maximal tail-withdrawal latency) (Spraque-Dawley rats [7]; 10 mg/kg IP with PGE2, PGE2 alone 44.8±0.1, vehicle 50.3±0.4): 48.8±0.2
% Reversal of CCl-induced tactile hypersensitivity (Spraque-Dawley rats [8]; cumulative dose 1 mg/kg): 13%
% Reversal of CCl-induced tactile hypersensitivity (Spraque-Dawley rats [8]; cumulative dose 3 mg/kg): 45%
% Reversal of CCl-induced tactile hypersensitivity (Spraque-Dawley rats [8]; cumulative dose 10 mg/kg, 10 mg/kg): 97%
devoid of many PCP-like effects up to doses times higher than those effective in an ischemia model [9]: 4-10
